In patent EP2363494A9, “Improvement of transfection results of non-viral gene delivery systems by influencing the congenital immune system” (Biontex Laboratories Gmbh, priority 2007, dated 2009):
Like-named read-outs stand apart in the source and are kept apart here.

Assays:
HeLa-Luc Zellen [1] = test: Luciferase assay after anti-Luciferase siRNA transfection in presence of TLR7/8 agonists (Beispiel 9); format: cell-based; details: 48 h
Experimental: Anschließend werden 120 µl Luciferase-Lysispuffer hinzugegeben.
Alle Messungen wurden dreifach durchgeführt.
Von der Imiquimod-Arbeitslösung werden in A1 0,78 µl (=0,25 µg/ml Endkonzentration), in A2 15,5 µl (=5µg/ml) und in A3 31 µl (=10µg/ml) pipettiert. Von der ssRNA40/LyoVec-Arbeitslösung werden in B1 0,78 µl (=0,5 µg/ml Endkonzentration ssRNA40), in B2 15,5 µl (=5µg/ml) und in B3 31µl (=10µg/ml) pipettiert. Nach der Zugabe der Agonisten werden die beiden 48 Well Platten für 48 Stunden im CO2-Inkubator inkubiert.

HeLa-Luc Zellen [2] = test: Trypan blue vitality determination after siRNA transfection in presence of TLR7/8 agonists (Beispiel 9); format: cell-based; details: Trypanblau after 48 h, Blindprobe 95,9
Experimental: Zunächst werden die ersten 5 Wells der ersten 3 Reihen einer 48 Well Platte mit jeweils 30 µl PBS gefüllt. Die Stocklösung der anti-Luciferase-siRNA und der non-specific-control-siRNA wird mit PBS auf eine Konzentration von 1 pmol/10 µl eingestellt. Anschließend werden jeweils 10 µl der Arbeitslösung der anti-Luciferase-siRNA in die ersten 3 Wells der der ersten drei Reihen der 48 Well Platte pipettiert. In die jeweils vierten Wells werden jeweils 10 µl der Arbeitslösung der non-specific-control-siRNA pipettiert. Das Metafectene Pro Reagenz wird mit PBS 1:300 verdünnt. Von dieser Verdünnung werden jeweils 20 µl in jedes Well mit siRNA gegeben. Anschließend werden die Lipoplexe für 20 Minuten bei Raumtemperatur inkubiert. Danach werden pro Well 250 µl Zellsuspension zugegeben. Analog wird eine zweite Platte bestückt.
In die ersten 2 Spalten der beiden 48 Well Platte werden 2 verschiedene Agonisten hinzugegeben. Dabei werden 3 verschiedene Arbeitskonzentrationen der Agonisten verwendet. Die Agonisten liegen lyophilisiert vor. Sie werden mit endotoxin-freiem Wasser zu Stocklösungen mit der Konzentration 100µg/ml gelöst. Die Stocklösungen werden jeweils 1:10 mit Wasser zu Arbeitslösungen verdünnt.
Von der ssRNA40/LyoVec-Arbeitslösung werden in B1 0,78 µl (=0,5 µg/ml Endkonzentration ssRNA40), in B2 15,5 µl (=5µg/ml) und in B3 31µl (=10µg/ml) pipettiert. Nach der Zugabe der Agonisten werden die beiden 48 Well Platten für 48 Stunden im CO2-Inkubator inkubiert.
Nach einer Inkubationszeit von 48 Stunden werden die Zellen einer Platte trypsiniert und mittels einer Neubauer-Zählkammer eine Vitalitätbestimmung mit Trypanblau für jedes Well durchgeführt.
Es wurden zwischen 40 und 70 Zellen ausgewertet.

HeLa-Luc Zellen [3] = test: Luciferase assay after anti-Luciferase siRNA transfection in presence of kinase inhibitors (Beispiel 8); details: 2 h before anti-Luciferase-siRNA/Metafectene Pro lipoplex
HeLa Zellen = details: Vorinkubationszeit 2h, inhibitor replaced and transfection repeated on day 3, Entwicklungszeit 10 min, 0µM well 0,63
Experimental: Die Effizienz der Transfektion wird mit dem β-Galaktosidase Assay Kit nach Vorgaben des Herstellers durchgeführt. Die Platten werden so lange entwickelt bis im Mikroplate-Reader eine Gelbfärbung mit einer Absorption von 1-2 gemessen wird und anschließend sofort gestoppt. Die Inkubationszeit wird anschließend notiert. Die Werte werden mit dem Mikroplate-Reader ausgelesen, und der Mittelwert gebildet.
1. Tag: Es werden HeLa Zellen in eine 48 Well Platte ausgesät.
1 mg Inhibitor wird in 100 µl DMSO gelöst (Stocklösung). Anschließend wird mit PBS 1:20 verdünnt (Arbeitslösung). Anschließend werden die Wells der 48 Well Platte mit folgenden Mengen Inhibitor versorgt:
Anschließend werden die Lipoplexe hergestellt. […] Jetzt werden beide Lösungen gemischt und 15 min inkubiert. Am Ende werden jeweils 50 µl der Lipoplexlösung in jedes Well gegeben.
Die Schritte Lipoplexherstellung und Transfektion werden ohne Inkubationszeit wiederholt.
Analog Beispiel 1 (mit halben Mengen)

CC(C)Cn1cnc2c(N)nc3ccccc3c21 [Imiquimod, 1-(2-methylpropyl)-1H-imidazol[4,5-c]quinolin-4-amine]
Luciferase Assay, Mittelwert von 3x3 (HeLa-Luc Zellen [1]; Imiquimod 0,25 µg/ml Endkonzentration (0,5µg/ml in the 30th table) + anti-Luciferase-siRNA/Metafectene Pro, same plate row: siRNA alone 1604, non-specific control 3016, blank 2936): 676 RLU/µl Zellextrakt/sec | Luciferase Assay, Mittelwert von 3x3 (HeLa-Luc Zellen [1]; Imiquimod 5µg/ml + anti-Luciferase-siRNA/Metafectene Pro, same plate row: siRNA alone 1302, non-specific control 2753, blank 2673): 349 RLU/µl Zellextrakt/sec | Luciferase Assay, Mittelwert von 3x3 (HeLa-Luc Zellen [1]; Imiquimod 10µg/ml + anti-Luciferase-siRNA/Metafectene Pro, same plate row: siRNA alone 1481, non-specific control 2822, blank 2476): 116 RLU/µl Zellextrakt/sec | Vitalität (HeLa-Luc Zellen [2]; Imiquimod 0,5µg/ml + anti-Luciferase-siRNA/Metafectene Pro): 98,6% | Vitalität (HeLa-Luc Zellen [2]; Imiquimod 5µg/ml + anti-Luciferase-siRNA/Metafectene Pro): 88,7% | Vitalität (HeLa-Luc Zellen [2]; Imiquimod 10µg/ml + anti-Luciferase-siRNA/Metafectene Pro): 88,6%

C[S+]([O-])c1ccc(-c2nc(-c3ccncc3)c(-c3ccc(F)cc3)[nH]2)cc1 (stereo not shown) [SB203580]
Luciferase Assay, Mittelwert von 3x3 Messungen (HeLa-Luc Zellen [3]; SB203580 5µM, one transfection, 0µM 1027, non-specific-control-siRNA 2029, untransfected 2504): 693 RLU/µl Zellextrakt/sec | Luciferase Assay, Mittelwert von 3x3 Messungen (HeLa-Luc Zellen [3]; SB203580 5µM, transfection repeated on day 3, 0µM 976, non-specific-control-siRNA 2135, untransfected 2531): 696 RLU/µl Zellextrakt/sec | Luciferase Assay, Mittelwert von 3x3 Messungen (HeLa-Luc Zellen [3]; SB203580 10µM, one transfection, 0µM 1027, non-specific-control-siRNA 2029, untransfected 2504): 747 RLU/µl Zellextrakt/sec | Luciferase Assay, Mittelwert von 3x3 Messungen (HeLa-Luc Zellen [3]; SB203580 10µM, transfection repeated on day 3, 0µM 976, non-specific-control-siRNA 2135, untransfected 2531): 656 RLU/µl Zellextrakt/sec | Luciferase Assay, Mittelwert von 3x3 Messungen (HeLa-Luc Zellen [3]; SB203580 20µM, one transfection, 0µM 1027, non-specific-control-siRNA 2029, untransfected 2504): 630 RLU/µl Zellextrakt/sec | Luciferase Assay, Mittelwert von 3x3 Messungen (HeLa-Luc Zellen [3]; SB203580 20µM, transfection repeated on day 3, 0µM 976, non-specific-control-siRNA 2135, untransfected 2531): 617 RLU/µl Zellextrakt/sec | Luciferase Assay, Mittelwert von 3x3 Messungen (HeLa-Luc Zellen [3]; SB203580 30µM, one transfection, 0µM 1027, non-specific-control-siRNA 2029, untransfected 2504): 671 RLU/µl Zellextrakt/sec | Luciferase Assay, Mittelwert von 3x3 Messungen (HeLa-Luc Zellen [3]; SB203580 30µM, transfection repeated on day 3, 0µM 976, non-specific-control-siRNA 2135, untransfected 2531): 587 RLU/µl Zellextrakt/sec | Luciferase Assay, Mittelwert von 3x3 Messungen (HeLa-Luc Zellen [3]; SB203580 40µM, one transfection, 0µM 1027, non-specific-control-siRNA 2029, untransfected 2504): 669 RLU/µl Zellextrakt/sec | Luciferase Assay, Mittelwert von 3x3 Messungen (HeLa-Luc Zellen [3]; SB203580 40µM, transfection repeated on day 3, 0µM 976, non-specific-control-siRNA 2135, untransfected 2531): 610 RLU/µl Zellextrakt/sec

N#CC(=C(/N)Sc1ccccc1N)/C(C#N)=C(/N)Sc1ccccc1N [U0126, 1,4-Diamino-2,3-dicyano-1,4-bis(o-amionophenylmercapto)butadiene]
Luciferase Assay, Mittelwert von 3x3 Messungen (HeLa-Luc Zellen [3]; U0126 5µM, one transfection, 0µM 1157, non-specific-control-siRNA 1829, untransfected 1674): 375 RLU/µl Zellextrakt/sec | Luciferase Assay, Mittelwert von 3x3 Messungen (HeLa-Luc Zellen [3]; U0126 5µM, transfection repeated on day 3, 0µM 1001, non-specific-control-siRNA 2290, untransfected 2249): 641 RLU/µl Zellextrakt/sec | Luciferase Assay, Mittelwert von 3x3 Messungen (HeLa-Luc Zellen [3]; U0126 10µM, one transfection, 0µM 1157, non-specific-control-siRNA 1829, untransfected 1674): 567 RLU/µl Zellextrakt/sec | Luciferase Assay, Mittelwert von 3x3 Messungen (HeLa-Luc Zellen [3]; U0126 10µM, transfection repeated on day 3, 0µM 1001, non-specific-control-siRNA 2290, untransfected 2249): 162 RLU/µl Zellextrakt/sec | Luciferase Assay, Mittelwert von 3x3 Messungen (HeLa-Luc Zellen [3]; U0126 25µM, one transfection, 0µM 1157, non-specific-control-siRNA 1829, untransfected 1674): 268 RLU/µl Zellextrakt/sec | Luciferase Assay, Mittelwert von 3x3 Messungen (HeLa-Luc Zellen [3]; U0126 25µM, transfection repeated on day 3, 0µM 1001, non-specific-control-siRNA 2290, untransfected 2249): 179 RLU/µl Zellextrakt/sec | Luciferase Assay, Mittelwert von 3x3 Messungen (HeLa-Luc Zellen [3]; U0126 50µM, one transfection, 0µM 1157, non-specific-control-siRNA 1829, untransfected 1674): 193 RLU/µl Zellextrakt/sec | Luciferase Assay, Mittelwert von 3x3 Messungen (HeLa-Luc Zellen [3]; U0126 50µM, transfection repeated on day 3, 0µM 1001, non-specific-control-siRNA 2290, untransfected 2249): 171 RLU/µl Zellextrakt/sec | Luciferase Assay, Mittelwert von 3x3 Messungen (HeLa-Luc Zellen [3]; U0126 75µM, one transfection, 0µM 1157, non-specific-control-siRNA 1829, untransfected 1674): 260 RLU/µl Zellextrakt/sec | Luciferase Assay, Mittelwert von 3x3 Messungen (HeLa-Luc Zellen [3]; U0126 75µM, transfection repeated on day 3, 0µM 1001, non-specific-control-siRNA 2290, untransfected 2249): 103 RLU/µl Zellextrakt/sec | Absorption β-Galaktosidase Assay, Mittelwert von 3 Messungen (HeLa Zellen; 5µM inhibitor): 0,72 | Absorption β-Galaktosidase Assay, Mittelwert von 3 Messungen (HeLa Zellen; 10µM inhibitor): 0,92 | Absorption β-Galaktosidase Assay, Mittelwert von 3 Messungen (HeLa Zellen; 25µM inhibitor): 0,79 | Absorption β-Galaktosidase Assay, Mittelwert von 3 Messungen (HeLa Zellen; 50µM inhibitor): 0,90 | Absorption β-Galaktosidase Assay, Mittelwert von 3 Messungen (HeLa Zellen; 75µM inhibitor): 0,97
